Results reported in patent US20140004243A1, “SALTY TASTE ENHANCER” (AJINOMOTO CO., INC., priority 2011, published 2014).

Molecular target: T1, Human ENaC δ, β and γ subunit (Homo sapiens, UniProt P51168+P51170+P51172)
T1 construct: expressed in transfected cells; host or cells: Xenopus laevis (African clawed frog) oocytes injected with cRNA
T1 sequence (P51172 1-802): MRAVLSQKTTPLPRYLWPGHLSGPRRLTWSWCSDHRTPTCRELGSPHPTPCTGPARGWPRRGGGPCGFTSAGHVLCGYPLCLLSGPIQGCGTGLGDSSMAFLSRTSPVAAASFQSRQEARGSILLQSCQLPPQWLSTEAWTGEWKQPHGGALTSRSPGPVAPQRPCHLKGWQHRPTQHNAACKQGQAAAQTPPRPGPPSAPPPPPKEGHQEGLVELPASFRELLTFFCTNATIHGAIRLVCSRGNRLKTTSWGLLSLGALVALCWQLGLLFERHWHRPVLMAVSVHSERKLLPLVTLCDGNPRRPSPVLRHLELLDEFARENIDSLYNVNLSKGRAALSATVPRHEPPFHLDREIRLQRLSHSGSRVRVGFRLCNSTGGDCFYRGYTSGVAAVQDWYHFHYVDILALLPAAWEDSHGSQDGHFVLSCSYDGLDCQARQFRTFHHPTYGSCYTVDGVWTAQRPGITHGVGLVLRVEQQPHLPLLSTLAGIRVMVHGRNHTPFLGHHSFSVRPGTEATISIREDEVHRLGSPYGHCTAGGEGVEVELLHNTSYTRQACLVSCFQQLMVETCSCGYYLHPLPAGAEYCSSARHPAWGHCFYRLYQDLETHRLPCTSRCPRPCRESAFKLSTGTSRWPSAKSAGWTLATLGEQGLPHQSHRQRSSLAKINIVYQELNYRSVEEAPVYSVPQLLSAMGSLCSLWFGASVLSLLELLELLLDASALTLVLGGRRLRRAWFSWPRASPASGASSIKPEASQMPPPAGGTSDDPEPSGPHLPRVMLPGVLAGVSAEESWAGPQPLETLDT
T1 sequence (P51168 1-640): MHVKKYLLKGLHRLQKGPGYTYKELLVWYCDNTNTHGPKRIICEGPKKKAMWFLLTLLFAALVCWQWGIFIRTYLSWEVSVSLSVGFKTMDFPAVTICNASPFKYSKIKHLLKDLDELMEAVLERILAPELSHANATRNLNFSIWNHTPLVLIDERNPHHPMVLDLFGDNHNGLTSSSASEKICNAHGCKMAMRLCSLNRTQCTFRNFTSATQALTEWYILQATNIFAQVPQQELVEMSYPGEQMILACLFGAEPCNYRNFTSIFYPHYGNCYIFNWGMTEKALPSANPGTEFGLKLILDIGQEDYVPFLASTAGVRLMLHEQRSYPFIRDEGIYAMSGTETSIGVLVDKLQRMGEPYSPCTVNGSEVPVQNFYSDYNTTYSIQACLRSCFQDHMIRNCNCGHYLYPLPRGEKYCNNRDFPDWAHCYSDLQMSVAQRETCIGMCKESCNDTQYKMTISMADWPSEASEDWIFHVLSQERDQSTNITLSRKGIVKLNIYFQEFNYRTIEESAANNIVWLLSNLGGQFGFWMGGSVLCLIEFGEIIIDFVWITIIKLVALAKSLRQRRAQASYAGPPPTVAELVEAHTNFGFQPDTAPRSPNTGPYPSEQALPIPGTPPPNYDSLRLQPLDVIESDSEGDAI
T1 sequence (P51170 1-649): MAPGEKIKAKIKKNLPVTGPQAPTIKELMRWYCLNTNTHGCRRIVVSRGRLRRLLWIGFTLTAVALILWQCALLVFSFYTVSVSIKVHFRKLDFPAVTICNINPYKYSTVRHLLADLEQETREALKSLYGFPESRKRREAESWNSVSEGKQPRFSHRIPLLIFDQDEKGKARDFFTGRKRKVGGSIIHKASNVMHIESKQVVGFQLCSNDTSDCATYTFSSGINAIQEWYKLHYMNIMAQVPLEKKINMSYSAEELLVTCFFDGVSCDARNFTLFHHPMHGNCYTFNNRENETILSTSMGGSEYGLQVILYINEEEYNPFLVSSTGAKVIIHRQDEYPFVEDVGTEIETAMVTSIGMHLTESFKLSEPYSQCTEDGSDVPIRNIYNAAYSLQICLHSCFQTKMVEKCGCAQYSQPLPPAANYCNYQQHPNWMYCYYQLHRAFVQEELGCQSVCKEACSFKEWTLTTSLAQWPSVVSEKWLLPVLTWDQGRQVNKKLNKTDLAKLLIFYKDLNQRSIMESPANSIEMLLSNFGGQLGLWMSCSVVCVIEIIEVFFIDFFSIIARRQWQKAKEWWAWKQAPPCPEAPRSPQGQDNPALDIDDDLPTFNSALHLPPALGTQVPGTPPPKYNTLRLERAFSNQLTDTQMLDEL
Assay: Measurement of ENaC activation potency (MED) in ENaC-expressing oocyte, Two Electrode Voltage Clamp
Assay type: cell-based
Settings: minimum effective dose at which current started to increase; ENaC-expressing African clawed frog oocyte; smaller MED = higher ENaC activation potency
Method: ENaC activation current value, namely, the inward current in ENaC-expressing oocyte was measured as follows.
According to the method described in Motonao Nakamura, Takao Shimizu: Experiment of African clawed frog oocyte, Experimental Medicine Vol. 11, No. 3, 224-232 (1993), oocyte was collected from African clawed frog, […], and the current value was measured by a Two Electrode Voltage Clamp technique. In the present invention, ND96 (96 mM NaCl, 2 mM KCl, 1 mM MgCl2, 5 mM Hepes, 1.8 mM CaCl2, pH 7.6) was used instead of MBS buffer in the above-mentioned document. Injector NANOLITER 2000 manufactured by World Precision Instruments was used for microinjection, OpusXpress 6000A manufactured by Molecular Devices was used for current value measurement by a Two Electrode Voltage Clamp technique, and Clampfit 10.2 software manufactured by Molecular Devices was used for data analysis.
Human ENaC δ, β and γ subunit genes shown by SEQ ID NOs: 1, 2 and 3, respectively, in the Sequence Listing were each cloned into a plasmid vector, and used as a template DNA for cRNA synthesis. cRNA was synthesized using MEGAscript kit manufactured by Ambion and according to the method of the manual of the manufacturer.
A mixture of the same amount of ENaC […] cRNA (0.4 to 0.8 μg/μL), and β and γ subunits cRNA (0.4 μg/μL) was injected into the oocyte of African clawed frog at […] per oocyte, and the oocyte was cultured for 16 hr-72 hr. Thereafter, the oocyte was set on a measuring apparatus OpusXpress 6000A, the electrodes were inserted into the oocyte, the voltage was clamped at a level lower by −30 mV than the resting membrane potential by a Two Electrode Voltage Clamp technique, and the current value was measured.
To measure the ENaC activation potency, oocyte was stimulated with each test compound, and the minimum effective dose (hereinafter to be abbreviated as MED) of the compound at the time point when the electric current started to increase was measured. In this case, whichever smaller value of the minimum effective dose of the stimulation compound that increased the current value by not less than 10%, and the minimum effective concentration of the compound that increased, by not less than 25%, the electric current increase value due to the stimulation by 5 μM capsazepine (CAS NO.: 138977-28-3), as compared to the current value before addition of the compound and without stimulation, was taken as MED. A smaller MED means higher ENaC activation potency.
Each test compound was directly dissolved in ND96, or first dissolved in dimethyl sulfoxide (DMSO) to 100 mM, and then prepared by diluting the solution with ND96 to a concentration used for the evaluation. The concentration of the test compound in ND96 was prepared to various concentrations within the range of 0.1 nM to 300 μm.
ND96 as a perfusion fluid was flown at a rate of 0.5 mL/min through the measuring apparatus OpusXpress 6000A on which ENaC-expressing oocyte was set, the perfusion fluid was temporarily stopped every 3 minutes to add a test compound solution (0.25 mL) dissolved in ND96 at a rate of 0.5 mL/min. In this way, the test compound was contacted with ENaC-expressing oocyte, and whether ENaC is activated by the compound was examined by measuring the current value. After addition of the test compound, feeding of the perfusion fluid was resumed to wash away the compound to be ready for the next addition of the compound.
The compound was added successively from a low concentration to a high concentration to stimulate ENaC-expressing oocyte. The concentrations actually added was, for example, 1 nM, 3 nM, 10 nM, 30 nM, 100 nM, 300 nM; 1 μM, 3 μM, 10 μm, 30 μm, 100 μm, 300 μm; 1.2 μM, 6 μM, 30 μm, 150 μm of one test compound. The compound was added from low concentrations to high concentrations at 3 min intervals. […]

SMILES | MED
C[C@@H](NC(=S)NCCc1ccccc1O)c1cccc(O)c1 [Example 89, 1-[2-(2-hydroxyphenyl)ethyl]-3-[(R)-1-(3-hydroxyphenyl)ethyl]thiourea] | 0.06 µM
C[C@@H](NC(=S)NNCc1ccccc1O)c1ccccc1 [Example 90] | 1 µM
C[C@@H](NC(=S)Nc1c(O)cccc1O)c1ccccc1 [Example 91] | 1 µM
COc1cccc(OC)c1/C=N/NC(=S)N[C@H](C)c1ccccc1 [Example 92, (E)-1-(2,6-dimethoxybenzylidene)-4-((R)-1-phenylethyl)thiosemicarbazide] | 30 µM
COc1cccc(OC)c1CNNC(=S)N[C@H](C)c1ccccc1 [Example 93, 1-(2,6-dimethoxybenzyl)-4-((R)-1-phenylethyl)thiosemicarbazide] | 30 µM
C[C@@H](NC(=S)N/N=C/c1c(O)cccc1O)c1ccccc1 [Example 94] | 3 to 10 µM
C[C@@H](NC(=S)NNCc1c(O)cccc1O)c1ccccc1 [Example 95] | 3 to 10 µM
COC(=O)c1ccccc1/C=N/NC(=S)N[C@H](C)c1ccccc1 [Example 96, methyl 2-{(E)-[4-((R)-1-phenylethyl)thiosemicarbazono]methyl}benzoate] | 30 µM
CC[C@@H](NC(=S)NCCc1ccccc1O)c1ccccc1 [Example 98] | 1 µM
CCC[C@@H](NC(=S)NCCc1ccccc1O)c1ccccc1 [Example 99] | 10 µM
COc1ccc([C@@H](C)NC(=S)NCCc2ccccc2O)cc1OC [Example 100] | 1 µM
O=C(O)[C@@H](NC(=S)NCCc1ccccc1)c1ccccc1 [Example 101] | 1 µM
O=C(O)[C@@H](NC(=S)NCCc1ccccc1O)c1ccccc1 [Example 102, (S)-2-{3-[2-(2-hydroxyphenyl)ethyl]thioureido}-2-phenylacetic acid] | 1 µM
NC(=O)[C@@H](NC(=S)NCCc1ccccc1)c1ccccc1 [Example 103] | 3 µM
C[C@@H](NC(=S)NCCc1ccccc1O)c1ccc(O)c(O)c1 [Example 104] | 0.06 to 0.1 µM
C[C@@H](NC(=S)NCC(O)c1ccccc1O)c1cccc(O)c1 (stereo partly drawn) [Example 105, 1-[2-(2-hydroxyphenyl)-2-hydroxyethyl]-3-[(R)-1-(3-hydroxyphenyl)ethyl]thiourea] | 0.06 to 0.1 µM

SMILES | MED
C[C@@H](NC(=S)NC(Cc1ccccc1O)C(=O)O)c1cccc(O)c1 (stereo partly drawn) [Example 106, 2-{3-[(R)-1-(3-hydroxyphenyl)ethyl]thioureido}-3-(2-hydroxyphenyl)propanoic acid] | 0.1 to 0.3 µM
C[C@@H](NC(=S)N[C@H](Cc1ccccc1)C(=O)O)c1cccc(O)c1 [Example 107] | 0.3 µM
C[C@@H](NC(=S)N[C@@H](Cc1ccccc1)C(=O)O)c1cccc(O)c1 [Example 108] | 0.3 µM
C[C@@H](NC(=S)N[C@H](Cc1ccc(O)cc1)C(=O)O)c1cccc(O)c1 [Example 109] | 0.3 µM
C[C@@H](NC(=S)N[C@@H](Cc1ccc(O)cc1)C(=O)O)c1cccc(O)c1 [Example 110] | 0.3 µM
C[C@@H](NC(=S)NCC(O)c1cccc(O)c1O)c1cccc(O)c1 (stereo partly shown) [Example 111] | 0.06 to 0.1 µM
C[C@@H](NC(=S)NCC(O)c1cc(O)ccc1O)c1cccc(O)c1 (stereo partly shown) [Example 112] | 0.1 µM
Cc1ccc(O)c(C(O)CNC(=S)N[C@H](C)c2cccc(O)c2)c1 (stereo partly shown) [Example 113] | 0.3 µM
C[C@@H](NC(=S)NCC(O)c1cc(Cl)ccc1O)c1cccc(O)c1 (stereo partly shown) [Example 115] | 0.06 to 0.1 µM
C[C@@H](NC(=S)NCC(O)c1cc(Br)ccc1O)c1cccc(O)c1 (stereo partly shown) [Example 116] | 0.1 µM
O=C(O)c1ccccc1NC(=S)Nc1ccc(Cl)cc1 [Example 117] | 0.3 µM
C[C@@H](NC(=S)Nc1ccccc1C(=O)O)c1cccc(O)c1 [Example 118] | 0.1 µM
COC(=O)c1cc(O)ccc1NC(=S)N(C)CCc1ccccc1 [Example 119] | 3 µM
CN(CCc1ccccc1)C(=S)Nc1ccc(O)cc1C(=O)O [Example 120] | 0.1 to 0.3 µM
CN(CCc1ccccc1O)C(=S)Nc1ccc(O)cc1C(=O)O [Example 124] | 0.3 µM
